Data taken from US20220087996A1, “Histone acetylase p300 inhibitor and use thereof” (HINOVA PHARMACEUTICALS INC., priority 2018, published 2022).
Where two headings read alike, the source gives them in different places.

System: CWR22RV1 cells
Experiment: Inhibition of proliferation of CWR22RV1 cells (CCK-8)
Type: cell-based, human
Settings: 6 days culture
Procedure: 1) CWR22RV1 cells were subcultured in cell culture medium, and the cells in good growth condition were seeded in a 96-well plate, 80 μL for each well, and the cell number in each well was 1500. The plate was incubated overnight in a 37° C., 5% CO2 cell incubator. 2) The drug was prepared as 30 mM stock solution with dimethyl sulfoxide (DMSO). Prior to use, the stock solution was diluted 3 times with DMSO, and then further diluted as 3-fold gradient to obtain 9 concentration gradients. Then, each concentration of compound was diluted 200 times with the culture solution (ensuring that the DMSO concentration in the culture system was 0.1%), and two replicate wells were set for each concentration. 20 μL of diluted compound solution was added to the cell culture well (with final concentrations of 10 μM, 3.3 μM. 1.1 μM . . . ), and the plate was gently shaken to mix. In addition, 3 negative control wells containing only cells and 3 blank control wells containing only culture medium were included (6 wells were each added 20 μL DMSO diluted 200 times with culture medium). 2. Result detection: (1) After culturing for 6 days, 10 μL CCK-8 was added to each well, and the plate was continually cultured in a 37° C., 5% CO2 cell incubator for 2.5 h. (2) The absorbance (OD value) was detected at 450 nm using a multifunctional microplate reader. (3) The data were analyzed by Dose-response-inhibition equation in the software GraphPad Prism6, and the IC50 value was obtained.

[1] = Homo sapiens, CWR22Rv1, 144 h, read-out: IC50 against CWR22RV1 cells

Work on CNC(=O)Nc1ccc2c(c1)CC[C@@]21OC(=O)N(CC(=O)N2CCCc3ccc(C(F)(F)F)cc32)C1=O [Example 300, (R)-1-(2′,4′-dioxo-3′-(2-oxo-2-(7-(trifluoromethyl)-3,4-dihydroquinolin-1(2H)-yl)ethyl)-2,3-dihydrospiro[indene-1,5′-oxazolidine]-5-yl)-3-methylurea] yielded an IC50 [1] greater than 2000 nM.

Work on CNC(=O)Nc1ccc2c(c1)CC[C@@]21OC(=O)N(CC(=O)N2CCCc3cc(-c4cnn(C)c4)ccc32)C1=O [Example 302, (R)-1-methyl-3-(3′-(2-(6-(1-methyl-1H-pyrazol-4-yl)-3,4-dihydroquinolin-1 (2H)-yl)-2-oxoethyl)-2′,4′-dioxo-2,3-dihydrospiro[indene-1,5′-oxazolidine]-5-yl)urea] yielded an IC50 [1] greater than 2000 nM.

For CNC(=O)Nc1ccc2c(c1)CC[C@@]21OC(=O)N(CC(=O)N2CCCC2c2ccccc2)C1=O (stereo partly drawn) [Example 303, 1-((1R)-2′,4′-dioxo-3′-(2-oxo-2-(2-phenylpyrrolidin-1-yl)ethyl)-2,3-dihydrospiro[indene-1,5′-oxazolidine]-5-yl)-3-methylurea], the IC50 [1] was 500 to 2000 nM.

In the case of CNC(=O)Nc1ccc2c(c1)CC[C@@]21OC(=O)N(CC(=O)N2Cc3cccnc3C2)C1=O [Example 304, (R)-1-(2′,4′-dioxo-3′-(2-oxo-2-(5H-pyrrolo[3,4-b]pyridin-6(7H)-yl)ethyl)-2,3-dihydrospiro[indene-1,5′-oxazolidine]-5-yl)-3-methylurea], the IC50 [1] is reported as greater than 2000 nM.

With CNC(=O)Nc1ccc2c(c1)CC[C@]21OC(=O)N(CC(=O)N2Cc3cccnc3C2)C1=O [Example 305, (S)-1-(3′-(2-(5,7-dihydro-6H-pyrrolo[3,4-b]pyridin-6-yl)-2-oxoethyl)-2′,4′-dioxo-2,3-dihydrospiro[indene-1,5′-oxazolidine]-5-yl)-3-methylurea] the IC50 [1] was greater than 2000 nM.

In the case of CNC(=O)Nc1ccc2c(c1)CC[C@@]21OC(=O)N(CC(=O)N2CCC[C@@H]2c2ccccc2)C1=O [Example 306, 1-((R)-2′,4′-dioxo-3′-(2-oxo-2-((R)-2-phenylpyrrolidin-1-yl)ethyl)-2,3-dihydrospiro[indene-1,5′-oxazolidine]-5-yl)-3-methylurea], the IC50 [1] is reported as greater than 2000 nM.

Compound Cc1noc(C)c1-c1ccc2c(c1)C1(CC1)CC21OC(=O)N(CC(=O)N(Cc2ccc(F)cc2)[C@@H](C)C(F)(F)F)C1=O (stereo partly drawn) [Example 308, 2-(5-(3,5-dimethylisoxazol-4-yl)-2′,4′-dioxo-2,3-dihydrospiro[cyclopropane-indene-1,5′-oxazole]-3′-yl)-N-(4-fluorobenzyl)-N—((S)-1,1,1-trifluoropropan-2-yl)acetamide] has an IC50 [1] of no more than 500 nM and an IC50 (Homo sapiens, CWR22Rv1, 144 h, read-out: IC50 against CWR22RV1 cells (text)) of no more than 500 nM.

CNC(=O)Nc1ccc2c(c1)CC[C@]21OC(=O)N(CC(=O)N2CCC[C@@H]2c2ccccc2)C1=O [Example 309, 1-((S)-2′,4′-dioxo-3′-(2-oxo-2-((R)-2-phenylpyrrolidin-1-yl)ethyl)-2,3-dihydrospiro[indene-1,5′-oxazolidine]-5-yl)-3-methylurea] gave an IC50 [1] of 500 to 2000 nM.

CNC(=O)Nc1ccc2c(c1)CC[C@]21OC(=O)N(CC(=O)N2CCC[C@H]2c2ccccc2)C1=O [Example 310, 1-((S)-2′,4′-dioxo-3′-(2-oxo-2-((S)-2-phenylpyrrolidin-1-yl)ethyl)-2,3-dihydrospiro[indene-1,5′-oxazolidine]-5-yl)-3-methylurea] showed an IC50 [1] greater than 2000 nM.

With CNC(=O)Nc1ccc2c(c1)CC[C@]21OC(=O)N(CC(=O)N2CCc3ccccc3C2)C1=O [Example 311, (S)-1-(3′-(2-(3,4-dihydroisoquinolin-2(1H)-yl)-2-oxoethyl)-2′,4′-dioxo-2,3-dihydrospiro[indene-1,5′-oxazolidine]-5-yl)-3-methylurea] the IC50 [1] was greater than 2000 nM.

In the case of CNC(=O)Nc1ccc2c(c1)CC[C@]21OC(=O)N(CC(=O)N2C[C@H]3C[C@@H]2CO3)C1=O [Example 315, 1-((S)-3′-(2-((1R,4R)-2-oxa-5-azabicyclo[2.2.1]heptan-5-yl)-2-oxoethyl)-2′,4′-dioxo-2,3-dihydrospiro[indene-1,5′-oxazolidine]-5-yl)-3-methylurea], the IC50 [1] is reported as greater than 2000 nM.

CNC(=O)Nc1ccc2c(c1)CC[C@]21OC(=O)N(Cc2nnc(-c3ccccc3)o2)C1=O [Example 317, (S)-1-(2′,4′-dioxo-3′-((5-phenyl-1,3,4-oxadiazol-2-yl)methyl)-2,3-dihydrospiro[indene-1,5′-oxazolidine]-5-yl)-3-methylurea] showed an IC50 [1] greater than 2000 nM.

Work on CNC(=O)Nc1ccc2c(c1)CC[C@@]21OC(=O)N(CC(=O)N2CCCC2c2cccc(C)c2)C1=O (stereo partly shown) [Example 318] yielded an IC50 [1] greater than 2000 nM.

In the case of CNC(=O)Nc1ccc2c(c1)CC[C@@]21OC(=O)N(CC(=O)N2CCCCC2c2ccccc2)C1=O (stereo partly drawn) [Example 322, 1-((1R)-2′,4′-dioxo-3′-(2-oxo-2-(2-phenylpiperidin-1-yl)ethyl)-2,3-dihydrospiro[indene-1,5′-oxazolidine]-5-yl)-3-methylurea], the IC50 [1] is reported as greater than 2000 nM.

CNC(=O)Nc1ccc2c(c1)CC[C@@]21OC(=O)N(CC(=O)N2CCCC2c2ccccc2F)C1=O (stereo partly drawn) [Example 323, 1-((1R)-3′-(2-(2-(2-fluorophenyl)pyrrolidin-1-yl)-2-oxoethyl)-2′,4′-dioxo-2,3-dihydrospiro[indene-1,5′-oxazolidine]-5-yl)-3-methylurea] was tested, and the IC50 [1] was greater than 2000 nM.

In the case of CNC(=O)Nc1ccc2c(c1)CC[C@@]21OC(=O)N(CC(=O)N2CCCC2c2ccccc2C)C1=O (stereo partly shown) [Example 324], the IC50 (read-out: IC50 against CWR22RV1 cells) is reported as greater than 2000 nM.

CNC(=O)Nc1ccc2c(c1)CC[C@@]21OC(=O)N(CC(=O)N2CCC[C@H]2C(=O)N2CC3CC2CO3)C1=O (stereo partly drawn) [Example 328, 1-(3′-(2-((2S)-2-(2-oxa-5-azabicyclo[2.2.1]heptan-5-carbonyl)pyrrolidin-1-yl)-2-oxoethyl)-2′,4′-dioxo-2,3-dihydrospiro[indene-1,5′-oxazolidine]-5-yl)-3-methylurea] was tested, and the IC50 [1] was greater than 2000 nM.

In the case of CNC(=O)Nc1ccc2c(c1)CCC21OC(=O)N(CC(=O)N2CCCC2c2ncc[nH]2)C1=O (stereo not shown) [Example 330, 1-(3′-(2-(2-(1H-imidazol-2-yl)pyrrolidin-1-yl)-2-oxoethyl)-2′,4′-dioxo-2,3-dihydrospiro[indene-1,5′-oxazolidine]-5-yl)-3-methylurea], the IC50 [1] is reported as greater than 2000 nM.

In the case of CNC(=O)Nc1ccc2c(c1)CC[C@@]21OC(=O)N(CC(=O)N2CCC[C@H]2C#N)C1=O [Example 331, 1-((R)-3′-(2-((S)-2-cyanopyrrolidin-1-yl)-2-oxoethyl)-2′,4′-dioxo-2,3-dihydrospiro[indene-1,5-oxazolidine]-5-yl)-3-methylurea], the IC50 [1] is reported as greater than 2000 nM.

In the case of CNC(=O)Nc1ccc2c(c1)CC[C@@]21OC(=O)N(CC(=O)N2CCCC2c2ccccn2)C1=O (stereo partly drawn) [Example 332, 1-((1R)-2′,4′-dioxo-3′-(2-oxo-2-(2-(pyridin-2-yl)pyrrolidin-1-yl)ethyl)-2,3-dihydrospiro[indene-1,5′-oxazolidine]-5-yl)-3-methylurea], the IC50 [1] is reported as greater than 2000 nM.

Compound CNC(=O)Nc1ccc2c(c1)CC[C@@]21OC(=O)N(CC(=O)N2CCC[C@H]2c2cc(C)n[nH]2)C1=O [Example 333, 1-methyl-3-((R)-3′-(2-((S)-2-(3-methyl-1H-pyrazol-5-yl)pyrrolidin-1-yl)-2-oxoethyl)-2′,4′-dioxo-2,3-dihydrospiro[indene-1,5′-oxazolidine]-5-yl)urea] has an IC50 [1] greater than 2000 nM.

With CNC(=O)Nc1ccc2c(c1)CC[C@@]21OC(=O)N(CC(=O)N2CCCC2c2cccnc2)C1=O (stereo partly drawn) [Example 334, 1-((1R)-2′,4′-dioxo-3′-(2-oxo-2-(2-(pyridin-3-yl)pyrrolidin-1-yl)ethyl)-2,3-dihydrospiro[indene-1,5′-oxazolidine]-5-yl)-3-methylurea] the IC50 [1] was greater than 2000 nM.

CNC(=O)Nc1ccc2c(c1)CC[C@@]21OC(=O)N(CC(=O)N2CCCC2c2cccc(OC)c2)C1=O (stereo partly drawn) [Example 335, 1-((1R)-3′-(2-(2-(3-methoxyphenyl)pyrrolidin-1-yl)-2-oxoethyl)-2′,4′-dioxo-2,3-dihydrospiro[indene-1,5′-oxazolidine]-5-yl)-3-methylurea] showed an IC50 [1] greater than 2000 nM.

Work on CNC(=O)Nc1ccc2c(c1)CC[C@@]21OC(=O)N(CC(=O)N2CCCC2c2ccccc2Br)C1=O (stereo partly drawn) [Example 336, 1-((1R)-3′-(2-(2-(2-bromophenyl)pyrrolidin-1-yl)-2-oxoethyl)-2′,4′-dioxo-2,3-dihydrospiro[indene-1,5′-oxazolidine]-5-yl)-3-methylurea] yielded an IC50 [1] greater than 2000 nM.

For CNC(=O)Nc1ccc2c(c1)CC[C@@]21OC(=O)N(CC(=O)N2C(C)CCC2c2ccc(F)cc2OC)C1=O (stereo partly drawn) [Example 337, 1-((1R)-3′-(2-(2-(4-fluoro-2-methoxyphenyl)-5-methylpyrrolidin-1-yl)-2-oxoethyl)-2′,4′-dioxo-2,3-dihydrospiro[indene-1,5′-oxazolidine]-5-yl)-3-methylurea], the IC50 [1] was 500 to 2000 nM.

CNC(=O)Nc1ccc2c(c1)CC[C@@]21OC(=O)N(CC(=O)N2CCCC2c2ccc(F)cc2OC)C1=O (stereo partly drawn) [Example 340, 1-((1R)-3′-(2-(2-(4-fluoro-2-methoxyphenyl)pyrrolidin-1-yl)-2-oxoethyl)-2′,4′-dioxo-2,3-dihydrospiro[indene-1,5′-oxazolidine]-5-yl)-3-methylurea] showed an IC50 [1] greater than 2000 nM.

CNC(=O)Nc1ccc2c(c1)CC[C@@]21OC(=O)N(CC(=O)N2CCCC2c2ccc(OC)cc2OC)C1=O (stereo partly drawn) [Example 341, 1-((1R)-3′-(2-(2-(2,4-dimethoxyphenyl)pyrrolidin-1-yl)-2-oxoethyl)-2′,4′-dioxo-2,3-dihydrospiro[indene-1,5′oxazolidin]-5-yl)-3-methylurea] was tested, and the IC50 [1] was greater than 2000 nM.
